The record followed here is patent US9630969B2, “N-alkyl tryptanthrin derivative, preparation method for same, and application thereof” (SHANGHAI TIN TSZ BIO VALLEY BIOLOGICAL ENGINEERING CO., LTD, priority 2013, dated 2017).

Molecules are shown by their SMILES. Where two headings read alike, the source gives them in different places.

As a reminder, the IC50 is the point on the concentration scale where inhibition reaches its midpoint.

The target in assay [1] is T1, human IDO (Homo sapiens, UniProt P14902).
T1 construct: made in house; host or cells: Escherichia coli
In words: Determination of whether the inhibitor is reversible (v~[E] plot). In kind it is biochemical. The settings on record: constant inhibitor concentration, different IDO enzyme amounts, 300 mM L-tryptophan, 37° C. 30 minutes. As to the method: In case that the inhibitor concentration was constant, a series of enzymes of different concentrations are reacted with the inhibitor and the reaction rate was measured. The reaction rate to the enzyme concentration (v˜[E]) was plotted, thus it can be determined that whether it is a reversible inhibitor according to the curve characteristics.
The mixture was incubated under 37° C. for 5 min, then different volumes of IDO enzymes were added. The reaction was conducted at 37° C. for 30 minutes and was terminated by adding 30% (w/v) trichloroacetic acid (200 μl). The reaction system was heated at 65° C. for 15 minutes to convert the formyl kynurenine to kynurenine, and then rotated under 12000 rpm for 10 minutes. The supernatant was taken to mix with isometric solution of p-dimethyl amidogen benzaldehyde in acetic acid (2% (w/v)). The off scale reading at 490 nm was observed using a Microplate Reader. The v˜[E] was plotted.

In assay [2] the target is T1, human IDO. In words: biochemical. As to the method: The reaction was conducted under 37° C. for 30 minutes and was terminated by 30% (w/v) trichloroacetic acid (200 μl). The reaction system was heated under 65° C. for 15 minutes to convert the formyl kynurenine into kynurenine, and then rotated under 12000 rpm for 10 minutes. The supernatant was taken to mix with isometric p-dimethyl amidogen benzaldehyde in acetic acid (2% (w/v)) solution. The yellow color caused by the reaction of the mixture and kynurenine, can be observed at 490 nm by using Microplate Reader. The results were calculated with IC50 calculation software (see Table 1).

Setting [3] is: 150 mM substrate L-tryptophan, pH 6.5, 37° C. 30 minutes, read at 490 nm, read-out: IC50(in vitro).

T1 sequence (P14902 whole entry): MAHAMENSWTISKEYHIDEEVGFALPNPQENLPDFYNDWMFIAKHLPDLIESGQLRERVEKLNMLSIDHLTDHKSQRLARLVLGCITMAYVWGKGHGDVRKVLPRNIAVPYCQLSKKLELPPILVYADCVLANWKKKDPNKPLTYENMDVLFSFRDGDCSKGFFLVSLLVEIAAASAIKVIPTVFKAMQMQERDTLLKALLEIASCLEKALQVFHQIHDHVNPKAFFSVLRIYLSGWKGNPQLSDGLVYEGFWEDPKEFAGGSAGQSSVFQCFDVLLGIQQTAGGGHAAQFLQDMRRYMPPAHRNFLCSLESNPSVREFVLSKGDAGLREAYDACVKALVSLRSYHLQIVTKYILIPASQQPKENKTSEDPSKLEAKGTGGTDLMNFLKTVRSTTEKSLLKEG

Take `O=C1c2c(N3CCNCC3)cccc2-n2c1nc1ccccc1c2=O` [Comparison 1, 7-piperazine tryptanthrin, reference compound]: the “Reversible Inhibitor or Not” value at human IDO [1] is “Reversible”. The molecule also gave a half-inhibitory concentration (IC50) against human IDO [2] of 54.3 µM.

As for `O=C1c2cc(F)ccc2-n2c1nc1ccc(N3CCNCC3)cc1c2=O` [Compound 5], on human IDO [1], the “Reversible Inhibitor or Not” value is reported as “Reversible”. In addition, the IC50 at human IDO [2] (setting [3]) amounted to 1.19 µM.

Regarding `CN1CCN(c2ccc3nc4n(c(=O)c3c2)-c2ccc(F)cc2C4=O)CC1` [Compound 6], the “Reversible Inhibitor or Not” value at human IDO [1] is listed as “Reversible”. Moreover, the IC50 at human IDO [2] (setting [3]) came to 2.2 µM.

In the case of `CN(C)c1ccc2nc3n(c(=O)c2c1)-c1ccc(F)cc1C3=O` [Compound 7], the “Reversible Inhibitor or Not” value on human IDO [1] is reported as “Reversible”. The 50% inhibitory concentration (IC50) at human IDO [2] (setting [3]) amounted to 10.3 µM.

Turning to `O=C1c2cc(F)ccc2-n2c1nc1ccc(N3CCCCC3)cc1c2=O` [Compound 9], on human IDO [1], the “Reversible Inhibitor or Not” value is reported as “Reversible”. Also, the IC50 on human IDO [2] (setting [3]) came out at 1.8 µM.

Turning to `CN1CCN(c2ccc3nc4n(c(=O)c3c2)-c2ccccc2C4=O)CC1` [Compound 11], the “Reversible Inhibitor or Not” value on human IDO [1] is “Reversible”. The IC50 at human IDO [2] (setting [3]) is 8.01 µM.
